Results from US20190054038A1, “NITRIC OXIDE GENERATING FORMULATIONS AND KITS” (THE REGENTS OF THE UNIVERSITY OF MICHIGAN, priority 2016, published 2019).
Values belong to the compound of their own block, whether it stands above or below them.

Columns and labels:
[1] = NO release kinetics of solutions by chemiluminescence (nitric oxide analyzer); type: physicochemical
Method: The NO release profile of the two solutions was measured via chemiluminescence detection at 37° C., and the results are shown in FIG. 3. As depicted, both solutions continuously generated NO for more than 7 hours, and the solution containing the higher concentration of GSNO generated higher levels of NO.
As depicted, the inclusion of ascorbate provided an enhanced NO release profile, with all of the NO release within a 2-3 hour window.
The NO release rate of some of the solution formulations was measured by chemiluminescent nitric oxide analyzer (NOA) at room temperature and at 37° C. in an amber NOA cell, while purging with 50 mL/min nitrogen through a glass pipette. The solution formulations were freshly prepared (initial data) (i.e., the dry powder nasal formulation was dissolved in 10 mL of saline solution (NaCl and NaHCO3 in water) immediately before measurements), or were prepared from stored dry power aliquots that were freshly dissolved in 10 mL of saline solution (NaCl and NaHCO3 in water) immediately before measurements. The NO release rate was tested for one or more of the following time periods: 0 (freshly prepared), 1 month, 2 months, 4 months, and 6 months.
The NOA was a Sievers NOA. Studying the release kinetics included analyzing the overall shape of the transient curve, half-life, and total NO released compared to theoretical GSNO content (%). Primarily, the shape of the graph was considered most qualitative, as different machines yield different PPB/mL values due to differing constants. If necessary, the GSNO quantification in each formulation was tested by a copper/cysteine method to release all of the NO from the GSNO very rapidly.

[2] = Stability of dry powder formulations by UV/Vis (GSNO absorbance at 334 nm); type: physicochemical
Method: Some of the formulations also included ethylenediamintetraacetic acid (EDTA) and/or saline salts (NaCl and NaHCO3). The constituents were mixed as dry powders and were stored in 4 mL amber vials either in the freezer (−18° C.), at 4° C., at room temperature (RT, from about 20° C. to about 25° C.), or at 37° C. The stability of some of the dry powder formulations was tested via UV/Vis analysis and/or via the Sievers nitric oxide (NO) analyzer (as previously described). For the UV/Vis analysis, at each time interval (0 (freshly prepared), 1 month, 2 months, 4 months, and 6 months), three samples (3-5 mg each) from the dry powder formulations (at each temperature, resulting in 12 vials per formulation) were put into 4 mL amber vials. The respective formulations were then diluted in 4 mL PBS+0.1 mM EDTA (PB SE) solution and mixed for 30 seconds, and 1 mL of the diluted formulation was injected into 3 mL PBSE in a disposable UV/VIS cuvette. The absorbance spectrum was measured typically between 300-600 nm after measuring the PBSE spectrum as blank. GSNO was quantified by absorbance measured at 334 nm. These values were then compared to a calculated value of the percentage of initial or theoretical GSNO content of each formulation.

[3] = system: S. aureus biofilm on CF airway epithelial cells; assay: Killing of S. aureus biofilm on CF airway epithelial cell cultures (bacterial density by plating lysates); type: cell-based; details: 1.25 mM, 4 hours
Method: Progenitor (basal) airway epithelial cells isolated from cystic fibrosis patients were cultured at air/liquid interface to promote mucociliary differentiation resembling airway epithelium in vivo. These cultures will be referred to herein as CF airway epithleial cells.
Apical surface of the CF airway epithelial cells was washed with PBS, infected apically with 10 μl of S. aureus (1×10^5 CFU/well or at 0.01 multiplication of infection), and incubated for 24 hours. […] The basolateral medium was changed, the apical surface was washed with saline once, and then 30 μl of PBS containing various concentrations of GSNO/Asc (i.e., 0 mM, 0.3 mM, 0.625 mM, 1.25 mM, 2.5 mM, and 5 mM) was added to the apical surface and incubated for 4 hours. The apical surface was washed once with 0.2 ml of 0.15% bicarbonate in PBS. […] Cells were lysed in 1% Triton X-100 and serial dilutions of cell lysates were plated to determine the bacterial density (FIG. 17A).
Apical surface of CF airway epithelial cells was washed with PBS, infected apically with 10 μl of S. aureus (2×10^6 CFU/well), and incubated for 24 hours. The basolateral medium was changed, the apical surface was washed with saline once and treated apically with 30 μl of PBS, or saline containing 1.25 mM GSNO/Asc, or saline containing 50 μg of gentamicin, or saline containing a mixture of 1.25 mM GSNO/Asc and 50 μg of gentamicin. […]

time of continuous NO generation ([1]; 10 μM and 25 μM GSNO in phosphate buffered saline pH 7.4, 37° C., no additive): more than 7 hours | time of peak NO release ([1]; GSNO 1-100 μM in saline, without any additive): 5 to 6 h | % of initial GSNO remaining ([2]; dry powder stored at 37° C., after 6 months): 67% | stability of dry powder over six months (UV/VIS) ([2]; stored at −18° C., 4° C., room temperature, 37° C.): no significant decrease in the stability
Structure (SMILES): N[C@@H](CCC(=O)N[C@@H](CSN=O)C(=O)NCC(=O)O)C(=O)O [GSNO, S-nitrosoglutathione]
amount of NO release versus GSNO concentration ([1]; GSNO 1-100 μM in saline): directly related to the GSNO concentration

Structure (SMILES): N[C@@H](CCC(=O)N[C@@H](CS)C(=O)NCC(=O)O)C(=O)O [GSH, reduced L-glutathione]
change in bacterial density [3]: no significant changes in bacterial density

ascorbic acid stability in stored dry powder formulation ([2]; UV/Vis of GSNO mixed with ascorbic acid, fresh vs stored several months): relatively stable
Structure (SMILES): O=C1O[C@H]([C@@H](O)CO)C(O)=C1O [ascorbic acid, L-ascorbic acid, reference compound]
change in bacterial density [3]: no significant changes in bacterial density

EDTA stability in stored dry powder formulation ([1]; NO release patterns, fresh vs stored several months): stable
Structure (SMILES): O=C(O)CN(CCN(CC(=O)O)CC(=O)O)CC(=O)O [EDTA, ethylenediaminetetraacetic acid]
